# Assays:
# [1] = system: MDA231 human breast cancer cells; assay: Pulmonary foci after i.v. MDA231 cells with daily conditioned media injections; format: in vivo, mice; conditions: i.v. tumor cells with daily CM injections
# From the text: To determine if the effect of increased circulating LOX levels on the growth of tumor cell foci at metastatic sites was independent of the initial steps of metastasis from a primary tumor (Steeg (2006) Nat. Med. 12:895-904), we intravenously injected MDA231 human breast cancer cells that expressed either LOX-targeting shRNA or a scrambled control sequence (Wt). We also provided circulating LOX by daily intraperitoneal injections of conditioned media (CM) derived from Wt or LOX shRNA cells exposed to hypoxic (H) or normoxic (N) conditions for 24 hours in vitro. […] CM from aerobic LOX shRNA cells had the lowest LOX activity (FIG. 19B).
# Local secretion of LOX by Wt tumor cells could sustain growth of Wt foci in the absence of exogenous circulating LOX, although larger foci were present when circulating LOX from hypoxic Wt CM was supplied (FIG. 19F-G). Since circulating LOX levels are highest in mice prior to metastasis formation from a primary tumor (FIG. 19A), we injected CM daily for 2 weeks prior to i.v. tumor cell injection (FIG. 19B).
# Conditioned media (CM) consisted of serum-free Modified Eagle's Medium cultured on MDA231 LOX shRNA or control cells incubated in normoxia (N; 21% O2) or hypoxia (H; 2% O2) for 24 h. CM was passed through a 0.22-μm filter and 300-μl were injected intraperitoneally daily into mice (Kaplan (2005), supra). […]
# [2] = system: A549 Non-Small Cell Lung Cancer Cells; assay: A549 cells injected into the tail vein of mice; format: in vivo; conditions: sacrificed at Day 22; BAPN 100 mg/kg daily
# Description: Human lung cancer A549 cells (ATCC CCL 185), known to be highly metastatic, were generated to stably express shRNA targeting LOX, as described in Methods. […] 1×10^6 cells were injected into the tail vein of mice (all cells go to the lung).
# Lungs from the dead mice bearing control tumors were formalin fixed, paraffin embedded and H&E stained to quantify lung tumors. Most lungs contained no tumors but all mice had numerous lymph node metastases and one had liver metastases. N=5 mice bearing lung tumors expressing LOX shRNA were sacrificed at Day 22. […] In addition, n=5 mice bearing control tumors treated daily with BAPN (100 mg/kg) were sacrificed at Day 22. […] The number of lung tumors for the A549 control animals is low because it is believed that the tumors metastasized out of the lung.
# Wild-type or LOX shRNA A549 Non-Small Cell Lung Cancer Cells were injected into the tail vein of immune deficient mice and analyzed for survival differences for a period of 181 days. 100% of animals with wild-type tumors died within 35 days compared with only 40% of animals stably transfected with a shRNA to LOX. Some animals were allowed two weeks to develop metastases, and then were left untreated or treated twice weekly with 2 mg/kg of the LOX antibody in Example 7. FIG. 12 is a Kaplan-Meyer plot showing survival of the animals.
compound,measurement,setting,value
"N#CCCN [BAPN, β-aminoproprionitrile]",pulmonary foci formation,[1],diminished foci formation
same,lung tumors,[2],very few tumors
same,metastases,[2],no metastases
